Data from PubChem BioAssay (NCI).
“And” between values parts separate entries of the source, which are not always exact repeats. Equal values may be shown once.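 48-hour exposure; five concentrations; linearly interpolated endpoints. GI50 marks 50% less growth. TGI is the concentration that stops growth completely.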

Each compound was assayed on NCI-H460 lung (assay: DTP human tumour cell line panel, 48 h).

First: Nc1ccc([N+](=O)[O-])cc1N=C/C=C/c1ccccc1
Second: O=C(O)COc1ccc2c(=O)c3sc4c(=O)c5ccccc5c(=O)c4c3c(=O)c2c1
The GI50 of the first is 3.2-fold higher: 11.3 µM for the first, 3.51 µM for the second.

First: CNCc1ccccc1-c1csc([C@@H](C)Nc2nc(C)nc3cc(OC)c(OC)cc23)c1
Second: COc1cc(OCc2cccc(-c3ccc(C(O)c4nccs4)cc3)c2C)cc(OC)c1C=O (stereo not drawn)
The GI50 of the first is 1.9-fold higher: 2.03 µM for the first, 1.09 µM for the second.

Going from `CC[As](CC)SC[C@H](C)C(=O)N1CCC[C@H]1C(=O)O` to `CC(=O)OC1COC(Oc2c(C)c3c4c(c2O)[C@@H](C)CC[C@@H]4[C@@H](C)C[C@H]3C=C(C)C)C(O)C1OC(C)=O` (stereo partly drawn), the GI50 rises from 0.418 µM to 8.36 µM (20-fold).

First: NC(N)=N/N=C/c1c(-c2ccsc2)nc2sccn12
Second: Oc1ccc(Nc2ncnc3c2sc2ncccc23)cc1
The GI50 of the first is higher: 14.8 µM for the first, under 0.01 µM for the second.

With `Cc1ccc(SC2c3ccc(C)cc3Oc3nc(N)c(C#N)c(N)c32)cc1` (stereo not drawn) the GI50 was 1.94 µM.

`Nc1ccc([N+](=O)[O-])cc1N=C/C=C/c1ccccc1` and `O=c1/c(=C/c2ccccc2[N+](=O)[O-])sc2nnc(-c3ccco3)n12` are within 1.5-fold of each other in TGI: 41.9 µM for the first, 56.2 µM for the second.

`CCN(CC)CCCN1CCc2c([nH]c3ccccc23)C1c1cccnc1` (stereo not drawn) and `CN1CC(=O)N2Cc3ccccc3-n3cccc3C2C1` (stereo not drawn) cannot be ordered by TGI: over 100 µM for the first, over 100 µM for the second.

Compared with `CNCc1ccccc1-c1csc([C@@H](C)Nc2nc(C)nc3cc(OC)c(OC)cc23)c1`, `COc1cc(OCc2cccc(-c3ccc(C(O)c4nccs4)cc3)c2C)cc(OC)c1C=O` (stereo not drawn) is 2.6-fold higher in TGI: 4.16 µM for the first, 10.7 µM for the second.

`Nc1nc(Cl)cc(NCCCCCCCCNc2cc(Cl)nc(N)n2)n1` and `CCC(=O)CC(=O)CCC(=O)Nc1cc(C)ccc1C` cannot be ordered by TGI: over 100 µM for the first, over 100 µM for the second.

`CC(C)N(C(=O)C12C3C4C1C1C4(C#N)C3C12C#N)C(C)C` (stereo not drawn) and `CC(C)C(CCl)NC(=O)c1cccc(C(=O)N[C@H](CCl)C(C)C)n1` (stereo in doubt) cannot be ordered by TGI: over 100 µM for the first, over 100 µM for the second.

Going from `O=C1CCC(Cl)=CC2CCCN12` (stereo not drawn) to `CC[As](CC)SC[C@H](C)C(=O)N1CCC[C@H]1C(=O)O`, the TGI falls from over 100 µM to 2.17 µM.

`c1ccc2cc(-c3cc4ccccc4s3)ccc2c1` and `Cc1ccc(S(=O)(=O)N(C=O)N=C2CCN(Cc3ccccc3)CC2)cc1` cannot be ordered by TGI: over 100 µM for the first, over 100 µM for the second.

Compared with `CCOC(=O)C(C#N)C1=CC(=O)C(=O)c2ccc(OC)cc21` (stereo not drawn), `O=C(O)COc1ccc2c(=O)c3sc4c(=O)c5ccccc5c(=O)c4c3c(=O)c2c1` is 5.6-fold lower in TGI: 58.6 µM for the first, 10.4 µM for the second.

Going from `NC(N)=N/N=C/c1c(-c2ccsc2)nc2sccn12` to `Oc1ccc(Nc2ncnc3c2sc2ncccc23)cc1`, the TGI rises from 28 µM to over 100 µM.

`CC(=O)OC1COC(Oc2c(C)c3c4c(c2O)[C@@H](C)CC[C@@H]4[C@@H](C)C[C@H]3C=C(C)C)C(O)C1OC(C)=O` (stereo partly drawn) and `Cc1cn2c(=O)c3ncn(C4OC(CO)C(O)C4O)c3n(C)c2n1` (stereo not drawn) cannot be ordered by TGI: over 100 µM for the first, over 100 µM for the second.

Compared with `CC(=O)CCn1ncc(Cl)c(Cl)c1=O`, `Cc1ccc(SC2c3ccc(C)cc3Oc3nc(N)c(C#N)c(N)c32)cc1` (stereo not drawn) is 10-fold lower in TGI: 42.2 µM for the first, 4.07 µM for the second.

Each compound was assayed on HS 578T breast (assay: DTP human tumour cell line panel, 48 h).

Compared with `COc1ccc(Sc2[nH]c(C(C)=O)c3ccccc23)cc1`, `COc1ccc(OC)c2c1[nH]c(=O)c1c3ccccc3cn21` is 5-fold lower in GI50: 10.9 µM for the first, 2.18 µM for the second.

Compared with `Cc1cc(Nc2ccc(NC(=O)c3ccc(Nc4ccnc5ccccc45)cc3)cc2)nc(N)n1`, `Oc1ccc(Nc2ncnc3c2sc2ncccc23)cc1` is higher in GI50: 5.79 µM for the first, over 100 µM for the second.

`COc1cc(OCc2cccc(-c3ccc(C(O)c4nccs4)cc3)c2C)cc(OC)c1C=O` (stereo not drawn) and `Cc1ccc(SC2c3ccc(C)cc3Oc3nc(N)c(C#N)c(N)c32)cc1` (stereo not drawn) are within 1.5-fold of each other in GI50: 3.08 µM for the first, 2.4 µM for the second.

First: O=C(O)COc1ccc2c(=O)c3sc4c(=O)c5ccccc5c(=O)c4c3c(=O)c2c1
Second: CC(=O)OC1COC(Oc2c(C)c3c4c(c2O)[C@@H](C)CC[C@@H]4[C@@H](C)C[C@H]3C=C(C)C)C(O)C1OC(C)=O (stereo partly drawn)
The GI50 of the first is 14-fold lower: 3.4 µM for the first, 46.8 µM for the second.

Compared with `COc1ccc(Sc2[nH]c(C(C)=O)c3ccccc23)cc1`, `COc1ccc(OC)c2c1[nH]c(=O)c1c3ccccc3cn21` is 6.4-fold lower in TGI: 32.6 µM for the first, 5.06 µM for the second.

`Cc1cc(Nc2ccc(NC(=O)c3ccc(Nc4ccnc5ccccc45)cc3)cc2)nc(N)n1` and `Oc1ccc(Nc2ncnc3c2sc2ncccc23)cc1` cannot be ordered by TGI: over 100 µM for the first, over 100 µM for the second.

Going from `COC(=O)C1c2cc3c(cc2C(OC2OC(C)C(OC)C(C)(OC)C2OC)CC1(C)O)C(=O)c1c(O)cc2c(c1C3=O)OC1OC2(C)C(O)C([N+](C)(C)[O-])C1O` (stereo not drawn) to `CC(=O)OC1COC(Oc2c(C)c3c4c(c2O)[C@@H](C)CC[C@@H]4[C@@H](C)C[C@H]3C=C(C)C)C(O)C1OC(C)=O` (stereo partly drawn), the TGI rises from 25.6 µM to over 100 µM.

Going from `CCOC(=O)C(C#N)C1=CC(=O)C(=O)c2ccc(OC)cc21` (stereo not drawn) to `O=C(O)COc1ccc2c(=O)c3sc4c(=O)c5ccccc5c(=O)c4c3c(=O)c2c1`, the TGI falls from 53.4 µM to 19.2 µM (2.8-fold).

First: COc1cc(OCc2cccc(-c3ccc(C(O)c4nccs4)cc3)c2C)cc(OC)c1C=O (stereo not drawn)
Second: Cc1ccc(SC2c3ccc(C)cc3Oc3nc(N)c(C#N)c(N)c32)cc1 (stereo not drawn)
The TGI of the first is 2.7-fold higher: 20.5 µM for the first, 7.64 µM for the second.

`COc1cccc2c1C(=O)c1c(O)c3c(c(O)c1C2=O)C[C@@](O)(C(=O)CO)C[C@@H]3OC1CC(N)CC(C)O1` (stereo partly drawn) was tested, and the GI50 was 0.0504 µM and 0.119 µM.

Each compound was assayed on SNB-75 CNS (assay: DTP human tumour cell line panel, 48 h).

`Clc1ccc2c(c1)[nH]c1c2nc2ccccn21` was tested, and the GI50 was 32.7 µM and 14.7 µM.

In the case of `Clc1ccc2c(c1)[nH]c1c2nc2ccccn21`, the TGI is reported as > 100 µM and 37.2 µM.

With `CCOC(=O)c1cnc2c(ccc3[nH]n(C)nc32)c1=O` the TGI was over 100 µM.
